Assay results published in patent US9492468B2, “Methods and compositions for treatment of acute heart failure” (PERICOR THERAPEUTICS, INC., priority 2008, dated 2016).
Structures can show the parent of a compound that is named as a salt.

Tests used:
[1] = system: TnI; assay: Plasma troponin I (sandwich ELISA), dose escalation study; assay type: in vivo, dog
Procedure: (§1) Eight heart failure dogs described in Example 1 were used. Seven of 8 dogs underwent two studies, one with active drug GP-531 tartrate and one with vehicle (placebo) and 1 of 8 dogs underwent only one active drug GP-531 study. The order of active drug and placebo was randomized and performed about one week apart. In 6 of 8 dogs, after baseline hemodynamic, and ventriculographic measurements, vehicle was administered as a continuous intravenous infusion for one hour. At the end of one hour, the active drug GP-531 tartrate was administered in 3 escalating dose of continuous intravenous infusion with each dose maintained for one hour. At the end of the last drug dose, infusion was stopped and a washout period of one hour was instituted. The same infusion rates and times between doses were used when vehicle studies were performed. At the end of each hour, hemodynamic and angiographic measurements were made. Venous blood samples were obtained at baseline and at one hour after each dose. Blood samples (at least 10 mL) were centrifuged at 3000 rpm for 10 minutes and plasma withdrawn and placed in cryostorage tubes and stored upright at −20° C. for future use. In 2 of 8 dogs, active drug was administered as bolus followed by a constant infusion for 3 hours as noted below.
(§2) Plasma biomarkers were measured in Groups I and II. Troponin I (TnI) was determined in plasma based on the principle of the double antibody sandwich enzyme-linked immunosorbent assay (ELISA) (Hirano, T., et al., Immunol Today 1990, 11:443-449) and n-terminal brain natriuretic peptide (NT-pro-BNP) based on competitive ELISA (Bonow, R. O. Circulation 1996, 93:1946-1950). Both biomarkers were assayed using commercially available assay kits. Kits for NT proBNP and TnI were purchased from ALPCO Diagnostics, Salem, N.H. Using standard curves and software, the concentration of each biomarker was expressed as ng/ml for TnI and fmol/ml for NT-proBNP.

[2] = system: dogs with advanced heart failure; assay: GP-531 infusion simultaneously with 8-SPT (non-selective adenosine antagonist); assay type: in vivo, dog; conditions: for Cardiac output (CO) / Heart rate (HR) / LV end-diastolic pressure (LVEDP) / LV end-diastolic volume (EDV) / LV end-systolic volume (ESV) / Mean aortic pressure (mAoP) / Stroke volume (SV) / Systemic vascular resistance (SVR): GP-531 infusion simultaneously with 8-SPT infusion
Procedure: At the completion of the 6 hour constant infusion study, a secondary study was performed in 3 heart failure dogs to assess the effects of GP-531 in the presence of the non-selective adenosine antagonist 8-p-sulfophenyl theophylline (8-SPT). After baseline hemodynamic and ventriculographic measurements, 8-SPT was administered as 10 mg/kg intravenous bolus followed by 10 mg/kg/hr constant infusion for 3 hours. Infusion of GP-531 tartrate was initiated simultaneously with infusion of 8-SPT at a dose of 10 μg/kg/hr and also maintained for 3 hours. Hemodynamic and ventriculographic measurements were made at 1, 2 and 3 hours.
All hemodynamic measurements were made during left and right heart catheterizations in anesthetized dogs at each specified study time point. Heart rate (HR), mean aortic pressure (mAoP), LV end-diastolic pressure (LVEDP), stroke volume (SV), cardiac output (CO) and systemic vascular resistance (SVR) were measured at each study time point. Left ventriculograms were performed during cardiac catheterization after completion of the hemodynamic measurements. Left ventriculograms were obtained with the dog placed on its right side and digitally recorded during the injection of 20 ml of contrast material (RENO-M-60 Squibb, Princeton, N.J.). Correction for image magnification was made using a radiopaque grid placed at the level of the LV. LV end-systolic (ESV) and end-diastolic volumes (EDV) were calculated from angiographic silhouettes using the area length method (Dodge H T, et al, Am J Cardiol. 1966; 18:10-24.). Premature beats and post-extra-systolic beats were excluded from the analysis. LV ejection fraction (EF) was calculated as the ratio of the difference of end-diastolic and end-systolic volumes to end-diastolic volume times 100, as described above.
Within group hemodynamic and angiographic data were analyzed using repeated measures analysis of variance (ANOVA) with alpha set at 0.05. If the overall ANOVA was significant, then pairwise comparisons between baseline and drug or placebo dose/time point were performed using the Student-Newman-Keuls test. For this test, a p-value of <0.05 was considered significant. All data are reported as the mean±SEM.

[3] = system: NT-ProBNP; assay: Plasma NT-proBNP (competitive ELISA), dose escalation study; assay type: in vivo, dog
Procedure: as §1, §2

[4] = target: T1, NBTI-sensitive adenosine transporter (Homo sapiens, UniProt Q99808); assay: Ligand status at adenosine transporter; assay type: binding
T1 sequence (Q99808 1-456): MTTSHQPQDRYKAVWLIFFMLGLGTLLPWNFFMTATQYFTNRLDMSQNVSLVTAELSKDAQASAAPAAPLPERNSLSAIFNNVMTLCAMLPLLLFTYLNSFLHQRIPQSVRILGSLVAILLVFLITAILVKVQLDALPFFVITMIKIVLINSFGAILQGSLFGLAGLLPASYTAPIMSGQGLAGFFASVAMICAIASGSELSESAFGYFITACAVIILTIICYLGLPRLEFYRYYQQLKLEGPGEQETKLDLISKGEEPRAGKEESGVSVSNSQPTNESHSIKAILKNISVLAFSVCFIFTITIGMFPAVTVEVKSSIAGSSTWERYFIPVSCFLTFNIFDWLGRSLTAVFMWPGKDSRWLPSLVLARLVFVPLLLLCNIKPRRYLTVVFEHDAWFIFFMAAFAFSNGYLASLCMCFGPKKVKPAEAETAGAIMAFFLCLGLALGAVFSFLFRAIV

[5] = target: T2, A1 receptors (Homo sapiens, UniProt P30542); assay: Ligand status at adenosine A1 receptor; assay type: binding
T2 sequence (P30542 1-326): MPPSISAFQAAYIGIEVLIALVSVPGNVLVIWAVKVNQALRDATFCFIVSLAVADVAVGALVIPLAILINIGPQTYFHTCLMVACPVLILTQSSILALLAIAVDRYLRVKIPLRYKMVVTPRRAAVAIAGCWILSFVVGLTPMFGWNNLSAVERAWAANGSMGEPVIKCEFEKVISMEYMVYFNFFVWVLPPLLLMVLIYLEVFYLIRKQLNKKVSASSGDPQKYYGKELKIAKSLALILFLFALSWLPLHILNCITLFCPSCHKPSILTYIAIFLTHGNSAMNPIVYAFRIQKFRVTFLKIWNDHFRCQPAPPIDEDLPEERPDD

[6] = in man; cited from earlier work
[7] = Group I HF dogs, all doses (30, 100, 300 μg/kg/min), vs baseline
[8] = HF dogs n=3, administered simultaneously with 8-SPT, 3 h
[9] = Group I HF dogs n=3, 1 h washout after 30/100/300 μg/kg/min
[10] = Group I HF dogs n=3, iv 30 μg/kg/min, 1 h
[11] = Group I HF dogs n=3, iv 100 μg/kg/min, 1 h
[12] = Group I HF dogs n=3, iv 300 μg/kg/min, 1 h
[13] = Group II HF dogs n=3, 1 h washout after 3/10/30 μg/kg/min
[14] = Group II HF dogs n=3, iv 3 μg/kg/min, 1 h
[15] = Group II HF dogs n=3, iv 10 μg/kg/min, 1 h
[16] = Group II HF dogs n=3, iv 30 μg/kg/min, 1 h

NC(=O)c1ncn(C2OC(CNCc3ccccc3)C(O)C2O)c1N (stereo not drawn) [GP-531 tartrate]
Effect on plasma TnI [1, 7]: decreased significantly | Effect on plasma TnI ([1]; Group II HF dogs, 30 μg/kg/min, not statistically significant): tended to decrease at the highest dose | Effect on CO [2, 8]: no effects | Effect on EDV [2, 8]: no effects | Effect on EF [2, 8]: no effects | Effect on ESV [2, 8]: no effects | Effect on HR [2, 8]: no effects | Effect on LVEDP [2, 8]: no effects | Effect on SV [2, 8]: no effects | Effect on SVR [2, 8]: no effects | Effect on mAoP [2, 8]: no effects | Effect on plasma NT-Pro-BNP [3, 7]: decreased significantly | Effect on plasma NT-proBNP ([3]; Group II HF dogs, 3, 10, 30 μg/kg/min, significance only at 30 μg/kg/min): tended to decrease with escalating doses

NC(=O)c1ncn(C2OC(CNCc3ccccc3)C(O)C2O)c1N [GP-531, 5-amino-1-β-D-(5-benzylamino-5-deoxy-1-β-D-ribofuranosyl)imidazole-4 carboxamide]
Plasma TnI [1, 9]: 0.36 ± 0.03 pg/mL | Plasma TnI [1, 10]: 0.17 ± 0.03 pg/mL | Plasma TnI [1, 11]: 0.13 ± 0.02 pg/mL | Plasma TnI [1, 12]: 0.15 ± 0.05 pg/mL | Plasma TnI [1, 13]: 0.31 ± 0.05 pg/mL | Plasma TnI [1, 14]: 0.51 ± 0.05 pg/mL | Plasma TnI [1, 15]: 0.50 ± 0.15 pg/mL | Plasma TnI [1, 16]: 0.19 ± 0.05 pg/mL | Cardiac output (CO) ([2]; HF dogs n=3, 1 h): 1.51 ± 0.08 L/min | Heart rate (HR) ([2]; HF dogs n=3, 1 h): 80 ± 4 beats/min | LV end-diastolic pressure (LVEDP) ([2]; HF dogs n=3, 1 h): 16 ± 0.0 mmHg | LV end-diastolic volume (EDV) ([2]; HF dogs n=3, 1 h): 69 ± 3 mL | LV end-systolic volume (ESV) ([2]; HF dogs n=3, 1 h): 50 ± 3 mL | Mean aortic pressure (mAoP) ([2]; HF dogs n=3, 1 h): 97 ± 9 mmHg | Stroke volume (SV) ([2]; HF dogs n=3, 1 h): 19 ± 0.6 rnl | Systemic vascular resistance (SVR) ([2]; HF dogs n=3, 1 h): 5089 ± 203 dynes-sec-cm^−5 | Cardiac output (CO) ([2]; HF dogs n=3, 2 h): 1.57 ± 0.15 L/min | Heart rate (HR) ([2]; HF dogs n=3, 2 h): 81 ± 5 beats/min | LV end-diastolic pressure (LVEDP) ([2]; HF dogs n=3, 2 h): 16 ± 0.3 mmHg | LV end-diastolic volume (EDV) ([2]; HF dogs n=3, 2 h): 69 ± 3 mL | LV end-systolic volume (ESV) ([2]; HF dogs n=3, 2 h): 49 ± 2 mL | Mean aortic pressure (mAoP) ([2]; HF dogs n=3, 2 h): 82 ± 6 mmHg | Stroke volume (SV) ([2]; HF dogs n=3, 2 h): 19 ± 0.9 rnl | Systemic vascular resistance (SVR) ([2]; HF dogs n=3, 2 h): 4191 ± 84 dynes-sec-cm^−5 | Cardiac output (CO) ([2]; HF dogs n=3, 3 h): 1.53 ± 0.05 L/min | Heart rate (HR) ([2]; HF dogs n=3, 3 h): 81 ± 6 beats/min | LV end-diastolic pressure (LVEDP) ([2]; HF dogs n=3, 3 h): 16 ± 0.3 mmHg | LV end-diastolic volume (EDV) ([2]; HF dogs n=3, 3 h): 68 ± 3 mL | LV end-systolic volume (ESV) ([2]; HF dogs n=3, 3 h): 49 ± 3 mL | Mean aortic pressure (mAoP) ([2]; HF dogs n=3, 3 h): 82 ± 7 mmHg | Stroke volume (SV) ([2]; HF dogs n=3, 3 h): 19 ± 1.0 rnl | Systemic vascular resistance (SVR) ([2]; HF dogs n=3, 3 h): 4297 ± 253 dynes-sec-cm^−5 | Benefits on LV function in conjunction with 8-SPT ([2]; HF dogs, administered in conjunction with 8-SPT, non-selective adenosine receptor antagonist): abolished | Ligand for NBTI-sensitive adenosine transporter [4]: has not been shown to be a ligand | Plasma NT-ProBNP [3, 9]: 204 ± 5 fmol/mL | Plasma NT-ProBNP [3, 10]: 128 ± 23 fmol/mL | Plasma NT-ProBNP [3, 11]: 131 ± 8 fmol/mL | Plasma NT-ProBNP [3, 12]: 121 ± 13 fmol/mL | Plasma NT-ProBNP [3, 13]: 179 ± 6 fmol/mL | Plasma NT-ProBNP [3, 14]: 225 ± 34 fmol/mL | Plasma NT-ProBNP [3, 15]: 155 ± 1 fmol/mL | Plasma NT-ProBNP [3, 16]: 123 ± 21 fmol/mL | Ligand for A1 receptors [5]: has not been shown to be a ligand | Oral bioavailability [6]: ~10%
